Test systems include SF-295 CNS; KM12 colon; RPMI-8226 leukemia; SN12C renal; SNB-19 CNS; OVCAR-5 ovarian; SF-539 CNS; HS 578T breast.
Assay in all cases: NCI tumour cell line growth inhibition, 48 h

The source of these data is PubChem BioAssay (NCI).

Each structure is given as a SMILES string.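 Protocol summary: plate cells (96-well), add compound at 5 concentrations, incubate 48 h, interpolate endpoints linearly. At the GI50, growth is halved. The concentration for full growth arrest is given as TGI.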 Bounds are passed on as bounds.

Turning to `CCCCCCCC(=O)Nc1nc2[nH]c(CN3CCN(Cc4cccc(I)c4)CC3)c(CN3CCN(Cc4cccc(I)c4)CC3)c2c(=O)[nH]1`, the GI50 in the assay on SF-295 CNS was 0.843 µM; in the assay with KM12 colon, 0.906 µM; with RPMI-8226 leukemia, 0.531 µM; in the assay on SN12C renal it was 0.916 µM; in the assay with SNB-19 CNS, 0.858 µM; with OVCAR-5 ovarian, 0.852 µM. The figures for the GI50 in the assay on SF-539 CNS and in the assay on HS 578T breast were 0.88 µM and 0.882 µM, respectively. Besides, the TGI in the assay on SF-295 CNS came to 1.55 µM; in the assay on KM12 colon, 1.75 µM; with RPMI-8226 leukemia, 1.81 µM; with SN12C renal it was 1.75 µM; with SNB-19 CNS, 1.62 µM; in the assay with OVCAR-5 ovarian, 1.57 µM. The TGI was found to be 1.61 µM in the assay with SF-539 CNS and 1.95 µM with HS 578T breast.

As for `COC(=O)[C@@H](C)C[C@H](Cc1ccc(F)cc1)NC(=O)c1csc([C@@H](C[C@H](C(C)C)N(C)C(=O)[C@@H](NC(=O)[C@H]2CCCCN2C)C2CC2)OC(C)=O)n1`, the GI50 is 0.585 µM in the assay on SF-295 CNS; 0.28 µM with KM12 colon; 0.104 µM in the assay with RPMI-8226 leukemia; 0.357 µM in the assay with SN12C renal; 0.164 µM in the assay with SNB-19 CNS; 1.07 µM with OVCAR-5 ovarian. Also, the figures for the GI50 with SF-539 CNS and with HS 578T breast were 0.408 µM and 0.307 µM, respectively. For the same molecule, the TGI with SF-295 CNS, in the assay with KM12 colon, with RPMI-8226 leukemia, in the assay on SN12C renal, in the assay on SNB-19 CNS and with OVCAR-5 ovarian was > 25 µM throughout. The TGI in the assay on SF-539 CNS was 1.49 µM; in the assay with HS 578T breast, > 7.76 µM.

`N[C@@H](Cc1c[nH]c2ccccc12)C(=O)NC1CCN(Cc2c[nH]c3ccc(Cl)cc23)CC1`: the GI50 in the assay with SF-295 CNS is 6.34 µM; in the assay with KM12 colon, 4.6 µM; with RPMI-8226 leukemia it was 6.23 µM; with SN12C renal, 15.3 µM; in the assay with SNB-19 CNS, 10.4 µM; in the assay with OVCAR-5 ovarian, 5.14 µM. Also, the results for the GI50 in the assay on SF-539 CNS and with HS 578T breast were 5.62 µM and 7.63 µM, respectively. For the same molecule, the TGI in the assay on SF-295 CNS worked out at 20.1 µM; with KM12 colon, 16.9 µM; in the assay on RPMI-8226 leukemia, 23.3 µM; with SN12C renal, 30.4 µM; with SNB-19 CNS it was 23.9 µM; in the assay with OVCAR-5 ovarian, 20.8 µM. For the same molecule, the TGI is 20.2 µM with SF-539 CNS and 24.5 µM in the assay with HS 578T breast.

In the case of `COc1ccc2cc(C(=O)N3CCC([C@@H](C)C(=O)NCc4ccc5c(c4)OCO5)CC3)[nH]c2c1`, the GI50 in the assay on SF-295 CNS is 68.5 µM; in the assay on KM12 colon, > 100 µM; in the assay on RPMI-8226 leukemia it was > 100 µM; in the assay with SN12C renal, > 100 µM; in the assay with SNB-19 CNS, 56.7 µM; in the assay on OVCAR-5 ovarian it was > 100 µM. Moreover, the GI50 with SF-539 CNS was > 100 µM; in the assay with HS 578T breast it was 27.9 µM. In addition, the TGI with SF-295 CNS, in the assay on KM12 colon, in the assay on RPMI-8226 leukemia, with SN12C renal, with SNB-19 CNS and in the assay with OVCAR-5 ovarian was > 100 µM throughout. Besides, the TGI with SF-539 CNS and in the assay on HS 578T breast was > 100 µM in each case.

With `NC(=O)c1ccc(I)c([N+](=O)[O-])c1`, the GI50 is > 92.7 µM with SF-295 CNS; > 100 µM with KM12 colon; 50.1 µM in the assay on RPMI-8226 leukemia; > 75.9 µM in the assay on SN12C renal; > 100 µM with SNB-19 CNS; 25.5 µM in the assay on OVCAR-5 ovarian. For the same molecule, the GI50 was > 100 µM with SF-539 CNS and > 66.2 µM with HS 578T breast. Also, the TGI was > 100 µM in the assay with SF-295 CNS; > 100 µM in the assay with KM12 colon; > 100 µM in the assay on RPMI-8226 leukemia; > 100 µM in the assay on SN12C renal; > 100 µM in the assay with SNB-19 CNS; > 68.1 µM in the assay with OVCAR-5 ovarian. The TGI with SF-539 CNS and with HS 578T breast was > 100 µM in each case.

`COc1cccc(C2SC(C)C(=O)N2NC(=O)C(O)c2ccccc2)c1` (stereo unspecified): the GI50 in the assay with SF-295 CNS, in the assay with KM12 colon, with RPMI-8226 leukemia, with SN12C renal, with SNB-19 CNS and in the assay on OVCAR-5 ovarian was > 100 µM each time. Besides, the GI50 with SF-539 CNS and in the assay on HS 578T breast was > 100 µM in each case. In addition, the TGI in the assay on SF-295 CNS, in the assay with KM12 colon, with RPMI-8226 leukemia, with SN12C renal, with SNB-19 CNS and with OVCAR-5 ovarian was > 100 µM each time. The TGI with SF-539 CNS and with HS 578T breast was > 100 µM in each case.

For the molecule `COc1ccc(OC)c(-c2cc(-c3ccc(Cl)cc3)nn2-c2ccccc2)c1`, the GI50 in the assay with SF-295 CNS is 33.5 µM; with KM12 colon, 23.1 µM; in the assay with RPMI-8226 leukemia, 3.29 µM; in the assay with SN12C renal, 23.9 µM; in the assay with OVCAR-5 ovarian, 88.4 µM; with SF-539 CNS it was 36 µM. Besides, in the assay with HS 578T breast, the GI50 is 18.5 µM. Besides, the TGI with SF-295 CNS is > 100 µM; in the assay on KM12 colon, > 100 µM; in the assay with RPMI-8226 leukemia, 26.5 µM; in the assay with SN12C renal it was 69.6 µM; with OVCAR-5 ovarian, > 100 µM; with SF-539 CNS it was 95.2 µM. In the assay on HS 578T breast, the TGI was > 100 µM.

Regarding `CCCCCCCCCCCCCCCCCC1=NC(C)(C)CN1C(C)(C)CO`, the GI50 with KM12 colon is 1.34 µM; with RPMI-8226 leukemia it was 1.8 µM; in the assay on SN12C renal, 1.52 µM; with SNB-19 CNS it was 1.79 µM; in the assay on OVCAR-5 ovarian, 1.56 µM; in the assay with SF-539 CNS it was 1.59 µM. For the same molecule, in the assay with HS 578T breast, the GI50 is 1.62 µM. Further, the TGI was determined as 2.64 µM in the assay with KM12 colon; 4.37 µM in the assay with RPMI-8226 leukemia; 3.25 µM with SN12C renal; 4.54 µM in the assay on SNB-19 CNS; 3.48 µM in the assay on OVCAR-5 ovarian; 3.14 µM in the assay with SF-539 CNS. This molecule gave a TGI in the assay on HS 578T breast of 3.98 µM.

For `CN1CCN(c2ccncc2S(=O)(=O)N2CCN(C)CC2)CC1`, the TGI in the assay on SF-295 CNS, with KM12 colon, in the assay with RPMI-8226 leukemia, with SNB-19 CNS, in the assay with OVCAR-5 ovarian and in the assay with SF-539 CNS was > 100 µM throughout. In addition, in the assay on HS 578T breast, the TGI is > 100 µM.
